Data from patent publication EP3833345B1, “SMALL MOLECULE-INHIBITORS OF 6-PHOSPHOFRUCTO-1-KINASE FOR REDUCING LACTATE GENERATION BY CANCER CELLS” (Kemijski Institut, priority 2018, dated 2020).

Tests used:
Assay type in all cases: cell-based
COLO 829 cells [1] = assay: cytotoxicity in COLO 829 cells (LDH kit); conditions: for average percent of dead COLO 829 cells: single addition, average over control and different concentrations of inhibitor
Protocol: (§1) Lactate generation, growth yield and survival under normal and inhibitory conditions of three different tumorigenic cells lines were determined in more detailed measurements. […] Cytotoxicity was measured by the Lactate dehydrogenase (LDH) kit (Roche).

MDA-MB-231 cells [2] = assay: cytotoxicity in MDA-MB-231 cells (LDH kit); conditions: for average percent of dead MDA-MB-231 cells: single addition, average over control and different concentrations of inhibitor
Protocol: as §1
Inhibitors No. 23, 29, 30 and 31 were tested for preventing lactate generation by the MDA-MB-231 cells.

MDA-MB-231 cells [3] = assay: lactate excretion by MDA-MB-231 cells; conditions: single addition; for lactate excretion by MDA-MB-231 cells: different concentrations
Protocol: (§2) Preliminary in vivo tests were run by measuring lactate production by three different tumorigenic cell lines. Again, 100 µM concentrations of tested compounds have been added to the medium. For the experiment, the following tumorigenic cells lines originating from different tumours were tested: Caco-2 cells (Figure 10a), originating from colorectal adenoma carcinoma; COLO 829 cells (Figure 10b), isolated from melanoma; and MDA-MB-231 cells (Figure 10c) derived from metastatic phase of mammary/breast cancer. All adherent cell lines were grown in the RPMI 1640 GlutaMAX substrate (Thermo Fisher) supplemented with 10% FBS.
Inhibitors No. 23, 29, 30 and 31 were tested for preventing lactate generation by the MDA-MB-231 cells. […] No significant discrepancies of total cell numbers were observed (Figure 14e) due to the different concentrations of inhibitors in the medium. […] The average percent of dead MDA-MB-231 cells in the control and in the presence of different concentrations of inhibitors were as follows: inh. 23 (2,98±0,2%), inh. 29 (3,37±0,39%), inh. 30 (3,4±0,21%), inh. 31 (6,87±0,44%). Additionally, cytotoxicity of inh. 3 (7,2±0,47%) and 9 (6,59±0,29%) for MDA-MB-231 cells were also determined. No dose dependent decrease of survival was observed by any inhibitor.
(§3) A decrease in inhibitory effectiveness of some compounds was observed after certain period of time (Example 11). […] Therefore, the influence of selected inhibitors was assessed by sequential re-insertion of low concentrations of inhibitors at indicated time points. The inhibitors were first added to the medium 8 hours after the inoculation followed by periodically additions at 24-hour intervals (marked by arrows).
In MDA-MB-231 calls similar results to those found in Caco-2 cells were observed. […] No significant cytostatic (Figure 17f) or cytotoxic effect of inhibitors could be detected after 92 hours of incubation despite of sequential addition of various concentrations of inhibitors. The following average percentages of dead cells were perceived in the medium without and with inh. 3 (2,05±0,18%), inh. 9 (1,85±0,05%), inh. 23 (2,20±0,15%), inh. 29 (1,54±0,16%) and inh. 30 (2,00±0,18%). No detrimental effects of increased inhibitors concentrations on cell deaths have been observed.

COLO 829 cells [4] = assay: lactate excretion by COLO 829 cells; conditions: for lactate excretion by COLO 829 cells: single addition, different concentrations
Protocol: as §2
On the basis of preliminary results, inhibitors No. 23, 29, 30 and 31 were tested on COLO 829 cells. […] No significant discrepancies of total cell numbers in respect to the control were observed due to the different concentrations of inhibitors in the medium (Figure 13e). The average percent of dead COLO 829 cells in the control and in the presence of different concentrations of inhibitors were as follows: inh. 23 (9,23±0,6%), inh. 29 (9,31±0,73%), inh. 30 (8,27±0,49%), inh. 31 (8,26±0,38%). Additionally, cytotoxicity of inh. 3 (5,01±1,08%) and 9 (3,65±0,78%) for COLO 829 cells were also determined. No dose dependent decrease of survival was observed by any inhibitor.
as §3
No significant cytostatic (Figure 16f) of cytotoxic effect of inhibitors could be detected after 92 hours of incubation despite of sequential addition of various concentrations of inhibitors. The following average percentages of dead cells were perceived in the medium without and media with inh. 3 (1,95±0,15%) inh. 9 (1,70±0,14%), inh. 23 (2,40±0,09%), inh. 29 (1,66±0,25%) and inh. 30 (1,38±0,18%). No detrimental effects of increased inhibitors concentrations on cell deaths have been observed.

Caco-2 cells [5] = assay: cytotoxicity in Caco-2 cells (lactate dehydrogenase (LDH) kit)
Protocol: as §1

Caco-2 cells [6] = assay: lactate excretion by Caco-2 cells; conditions: single addition
Protocol: as §2, with “Again, 100 µM concentrations of tested compounds have been added to the medium.” left out, “cancer.” for “cancer. All adherent cell lines were grown in the RPMI 1640 GlutaMAX substrate (Thermo Fisher) supplemented with 10% FBS.”
as §1
Therefore, the influence of selected inhibitors was assessed by sequential re-insertion of low concentrations of inhibitors at indicated time points. The inhibitors were first added to the medium 8 hours after the inoculation followed by periodically additions at 24-hour intervals (marked by arrows).

[7] = sequential addition at 24-hour intervals, 92 hours, average over medium without and with inhibitor

| Compound | average percent of dead COLO 829 cells (COLO 829 cells [1]) | average percent of dead MDA-MB-231 cells (MDA-MB-231 cells [2]) | lactate excretion by MDA-MB-231 cells (MDA-MB-231 cells [3]) | lactate excretion by COLO 829 cells (COLO 829 cells [4]) | average percentages of dead cells, COLO 829, sequential re-insertion (COLO 829 cells [1]; [7]) | average percentages of dead cells, Caco-2, sequential re-insertion (Caco-2 cells [5]; [7]) | average percent of dead cells, Caco-2 (Caco-2 cells [5]; single addition, average over control and different concentrations of inhibitor) | period of strong inhibition of lactate generation, Caco-2 (Caco-2 cells [6]; 20-80 µM, later the inhibitory effect was lost) [h] | lactate generation by Caco-2 cells (Caco-2 cells [6]; different concentrations (20-80 µM)) | average percentages of dead cells, MDA-MB-231, sequential re-insertion (MDA-MB-231 cells [2]; [7]) | period of strong inhibition of lactate generation, MDA-MB-231 (MDA-MB-231 cells [3]; later on lactate generation re-appeared) [h] | concentration at which comprehensive inhibition of lactate formation was detected, COLO 829 (COLO 829 cells [4]; sequential re-insertion at 24-hour intervals) [µM] |
| --- | --- | --- | --- | --- | --- | --- | --- | --- | --- | --- | --- | --- |
| O=C(Nc1nnc(-c2ccno2)o1)[C@H]1COc2ccccc2O1 [Inhibitor No. 31, (2R)-N-(5-isoxazol-5-yl-1,3,4-oxadiazol-2-yl)-2,3-dihydro-1,4-benzodioxine-2-carboxamide] | 8,26±0,38% | 6,87±0,44% | dose dependent inhibition of lactate excretion | some inhibition | – | – | – | – | – | – | – | – |
| CS(=O)(=O)Nc1nnc(NC(=O)c2ccc3[nH]c4c(c3c2)CCCC4)s1 [Inhibitor No. 23, N-[5-(methanesulfonamido)-1,3,4-thiadiazol-2-yl]-6,7,8,9-tetrahydro-5H-carbazole-3-carboxamide] | 9,23±0,6% | 2,98±0,2% | strong inhibition | Slightly weaker inhibition | 2,40±0,09% | 4,05±0,54% | 3,35±0,08% | 36 | strong inhibition of lactate generation | 2,20±0,15% | 42 | ≥ 20 |
